Data taken from paper PMC6463727, “Rational design of a heterotrimeric G protein α subunit with artificial inhibitor sensitivity” (The Journal of Biological Chemistry, 2019).
Where a chain is given by its changes, count along the chain named. Numbered stars: 1 amine (or outer) side, 2 acyl side, 3 side chain; on linkers, the order of the positions; unused ones are H or OH. Bridge positions count the residues as written; N and C are the ends. Square brackets hold non-standard residues; d marks the D form. Peptide text beside a SMILES is read from it. X2 = CC(=O)NC(C(=O)OC(C(C)C)C(N[*:1])C(=O)[*:2])C(O)C(C)C; PhLac = O=C(O)[CH](O)Cc1ccccc1; NMeT = CN[CH](C(=O)O)[CH](C)O; NMeA = CN[CH](C)C(=O)O; NMeDha = C=C(NC)C(=O)O

What was measured:
Test in all cases: cell-based
Conditions in all cases: read-out: YM pIC50 (converted)
Gα16 (G16 WT) C196P = target: T1, Gα16 (G16 WT) C196P (Homo sapiens, UniProt P30679, C196P); set-up: species or system HEK293 Gαq/Gα11-null (CRISPR/Cas9)
T1 construct: gene GNA15; human Gα16 cDNA in pcDNA3.1(+), expressed in CRISPR/Cas9 Gαq/Gα11-null HEK293 cells (transient); endogenous Gβγ
T1 sequence (P30679 1-374 C196P): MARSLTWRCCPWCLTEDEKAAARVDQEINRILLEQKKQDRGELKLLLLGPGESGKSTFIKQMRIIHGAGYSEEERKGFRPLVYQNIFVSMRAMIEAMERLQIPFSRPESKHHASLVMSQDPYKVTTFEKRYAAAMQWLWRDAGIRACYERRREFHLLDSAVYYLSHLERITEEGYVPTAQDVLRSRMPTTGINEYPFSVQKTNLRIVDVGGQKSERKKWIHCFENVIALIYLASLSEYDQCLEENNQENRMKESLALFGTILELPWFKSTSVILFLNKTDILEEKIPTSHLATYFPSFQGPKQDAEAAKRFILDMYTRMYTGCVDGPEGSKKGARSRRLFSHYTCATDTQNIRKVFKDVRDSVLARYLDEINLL
Protocol: (§1) Successful mutations were verified by DNA sequencing. Subconfluent cell cultures were transiently transfected with the respective expression plasmids using the polyethylenimine reagent (Polysciences, Warrington, PA) following the protocol provided by the manufacturer. All data were analyzed using GraphPad Prism 8.0.0 (GraphPad Inc., La Jolla, CA). Quantification of DMR signals was performed by calculation of the maximum responses. Data points from concentration-response or inhibition curves of individual functional experiments were fitted to the following four-parameter logistic function. (Eq. 1) Y=Bottom+(Top−Bottom)/1+10^(logEC50−x)slope Concentration-effect curves represented in figures were normalized by setting each experimental maximal effect as 100% response. All data are expressed as mean + or ± S.E. of at least three independent experiments performed in technical triplicates.

Gα16 (G16 WT) E74D = target: T2, Gα16 (G16 WT) E74D (Homo sapiens, UniProt P30679, E74D); set-up: species or system HEK293 Gαq/Gα11-null (CRISPR/Cas9)
T2 construct: gene GNA15; human Gα16 cDNA in pcDNA3.1(+), expressed in CRISPR/Cas9 Gαq/Gα11-null HEK293 cells (transient); endogenous Gβγ
T2 sequence (P30679 1-374 E74D): T1 sequence (P30679 1-374 C196P) with E74D, P196C
Protocol: as §1

Gα16 (G16 WT) M187V = target: T3, Gα16 (G16 WT) M187V (Homo sapiens, UniProt P30679, M187V); set-up: species or system HEK293 Gαq/Gα11-null (CRISPR/Cas9)
T3 construct: gene GNA15; human Gα16 cDNA in pcDNA3.1(+), expressed in CRISPR/Cas9 Gαq/Gα11-null HEK293 cells (transient); endogenous Gβγ
T3 sequence (P30679 1-374 M187V): T1 sequence (P30679 1-374 C196P) with M187V, P196C
Protocol: as §1

Gα16 (G16 WT) S185V = target: T4, Gα16 (G16 WT) S185V (Homo sapiens, UniProt P30679, S185V); set-up: species or system HEK293 Gαq/Gα11-null (CRISPR/Cas9), transfected Gα
T4 construct: gene GNA15; human Gα16 cDNA in pcDNA3.1(+), expressed in CRISPR/Cas9 Gαq/Gα11-null HEK293 cells (transient); endogenous Gβγ
T4 sequence (P30679 1-374 S185V): T1 sequence (P30679 1-374 C196P) with S185V, P196C
Protocol: Quantification of DMR signals was performed by calculation of the maximum responses. Data points from concentration-response or inhibition curves of individual functional experiments were fitted to the following four-parameter logistic function. (Eq. 1) Y=Bottom+(Top−Bottom)/1+10^(logEC50−x)slope Concentration-effect curves represented in figures were normalized by setting each experimental maximal effect as 100% response. All data are expressed as mean + or ± S.E. of at least three independent experiments performed in technical triplicates. […] Because none of our mutant proteins were […], we searched for additional residues that, when mutated, may incur activity loss for the two depsipeptides. We focused our attention on residues that (i) differed between Gαq and Gα16, (ii) were not addressed previously by mutagenesis, and (iii) were located on both linkers, including adjacent regions, to either directly interact with the depsipeptides (if side-chain or Gα atoms were within 5 Å to YM) or to be close enough to assist in stabilizing the inhibitor–protein interactions. Aspartate 71 (Asp-71) and valine 182 (Val-182) fulfilled these criteria (Fig. 3A; see also Fig. 2A): Asp-71 is part of an aspartic acid–arginine salt bridge that likely provides the interface between the depsipeptides and linker 1 by stabilizing and maintaining the inhibitor–linker 1 spacing (Fig. 3B). […]

SMILES: C=C1C(=O)NC(C)C(=O)N(C)C(C)C(=O)NC(C(OC(=O)C(NC(C)=O)C(O)C(C)C)C(C)C)C(=O)N(C)C(C(C)OC)C(=O)OC(C)C(NC(C)=O)C(=O)OC(Cc2ccccc2)C(=O)N1C (stereo not shown) [YM, YM-254890] (Ac-T[PhLac][NMeDha]A[NMeA][X2][NMeT](Me); ester 1-C; configuration not given here)
- IC50 (Gα16 (G16 WT) C196P): > 1000 µM
- IC50 (Gα16 (G16 WT) E74D): > 1000 µM
- IC50 (Gα16 (G16 WT) M187V): > 1000 µM
- IC50 (Gα16 (G16 WT) S185V): ~316 µM
